Patent US12508300B2, “Acylated GLP-1 derivative” (Sciwind Biosciences Co., Ltd., priority 2019, dated 2025)
Read-outs that look alike come from different tables or passages of the source. *1 amine or outer side, *2 acyl side, *3 side chain or, on linkers, in order; H or OH if unused. Where a SMILES comes first, the peptide text is derived from it. Where no end group is shown, it is not given here. Side-chain parts run from the residue outwards. The star is where a group is joined. C18 diacid = O=C(O)CCCCCCCCCCCCCCCCC(=O)*; γGlu = O=C(O)[C@H](CCC(=O)[*:2])N[*:1]; AEEA = NCCOCCOCC(=O)O

Assays:
Format in all cases: in vivo
CD-1 mice = test system: CD-1 mice
Procedure: Twenty-eight healthy female CD-1 mice aged 4-6 weeks are selected and divided into 4 groups, and they are injected subcutaneously with M4, M5, M7 and M0 at a dose of 0.15 mg/kg body weight.

db/db mice = assay: Glucose-lowing effect of different doses in type II diabetic db/db mice (fasting, random blood glucose, OGTT G-AUC); details: for Average changes of the blood glucose area under the curve after administration: OGTT
Procedure: The administration time is set as 0 h, and the fasting blood glucose and OGTT (oral glucose tolerance assay) are determined after fasting for 7-8 h every day, then 10% glucose is intragastrically administered at 1 g/kg body weight, and then blood is collected from the tip of the tail to measure the blood glucose in real time at 0, 0.5, 1, and 2 h after glucose load. After administration, the blood glucose is measured every day before fasting as random blood glucose, until the fasting blood glucose value of each animal of the test group recovers to the value before administration. All of the basal blood glucose value, random blood glucose value, and the blood glucose area under the curve (G-AUC) value determined before administration are bases for evaluating the efficacy of the medicament, and they are set as 0.
Change of the blood glucose (Δ: delta)=Blood glucose value after administration-Basal blood glucose value before administration.
Change of the blood glucose area under the curve (Δ: delta)=blood glucose area under the curve after administration-blood glucose area under the curve before administration.

ICR mice = test system: ICR mice; set-up: G-AUC: unit not given here
Procedure: 20% glucose is intragastrically administered every day according to the time schedule of 4 h, 1 d, 2 d, 3 d, 4 d, and 5 d, at a dose of 2 g/kg body weight, and fasting for 6 hours before administering the glucose; and blood is respectively collected from the tip of the tail at 0 h, 0.5 h, 1 h and 2 h after giving the 20% glucose, then measuring the blood glucose value in real time by using Roche blood glucose test paper.

## CC[C@H](C)[C@H](NC(=O)[C@H](Cc1ccccc1)NC(=O)[C@H](CCC(=O)O)NC(=O)[C@H](CCCNC(=N)N)NC(=O)[C@H](C)NC(=O)[C@H](C)NC(=O)[C@H](CCCCNC(=O)COCCOCCNC(=O)COCCOCCNC(=O)CC[C@H](NC(=O)CCCCCCCCCCCCCCCCC(=O)O)C(=O)O)NC(=O)[C@H](CCC(=O)O)NC(=O)[C@H](CCC(=O)O)NC(=O)[C@H](CC(C)C)NC(=O)[C@H](Cc1ccc(O)cc1)NC(=O)[C@H](CO)NC(=O)[C@H](CO)NC(=O)[C@@H](NC(=O)[C@H](CC(=O)O)NC(=O)[C@H](CO)NC(=O)[C@@H](NC(=O)[C@H](Cc1ccccc1)NC(=O)[C@@H](NC(=O)CNC(=O)[C@H](CCC(=O)O)NC(=O)[C@@H](NC(=O)[C@@H](N)Cc1c[nH]cn1)C(C)C)[C@@H](C)O)[C@@H](C)O)C(C)C)C(=O)N[C@@H](C)C(=O)N[C@@H](Cc1c[nH]c2ccccc12)C(=O)N[C@@H](CC(C)C)C(=O)N[C@H](C(=O)N[C@@H](CCCNC(=N)N)C(=O)NCC(=O)N[C@@H](CCCNC(=N)N)C(=O)NCC(=O)O)C(C)C [M2, N-ε^23-[2-(2-[2-(2-[2-(2-[4-(17-carboxyheptadecanoylamino)-4(s)-carboxybutyrylamino]ethoxy)ethoxy]acetylamino)ethoxy]ethoxy)acetyl](Val^8Glu^22Lys^23Arg^26,34-GLP-1 (7-37)) peptide] (H-HVEGTFTSDVSSYLEEK([AEEA-AEEA-γGlu-C18 diacid])AAREFIAWLVRGRG-OH; N-terminus and C-terminus assumed)
CD-1 mice; mouse, in vivo, sc, 0.15 mg/kg, 6 h
  Inhibition rate (blood glucose): 34.29%
CD-1 mice; mouse, in vivo, sc, 0.15 mg/kg, 30 h
  Inhibition rate (blood glucose): 29.51%
CD-1 mice; mouse, in vivo, sc, 0.15 mg/kg, 54 h
  Inhibition rate (blood glucose): 27.23%
CD-1 mice; mouse, in vivo, sc, 0.15 mg/kg, 78 h
  Inhibition rate (blood glucose): 21.97%
CD-1 mice; mouse, in vivo, sc, 0.15 mg/kg, 102 h
  Inhibition rate (blood glucose): 10.15%

## N-ε^26-[2-(2-[2-(2-[2-(2[4-(17-carboxyheptadecanoylamino)-4(s)-carboxybutyrylamino]ethoxy)ethoxy]acetylamino)ethoxy]ethoxy)acetyl]Val^8Glu^22Lys^26Arg^34-GLP-1(7-37) peptide (HVEGTFTSDVSSYLEEQAAK([AEEA-AEEA-γGlu-C18 diacid])EFIAWLVRGRG) [M0, Lys at position 26, disclosed in CN107033234A]
db/db mice; 0.015 mg/kg dosage group
  time after administration at which G-AUC returns to the base before administration: 27 h
  time after administration at which fasting blood glucose returns to the basal blood glucose base: 51 h
  time after administration at which random blood glucose returns to the base before administration: 67 h
db/db mice; 0.015 mg/kg s.c., 3 h
  Average changes of fasting blood glucose after administration: -3.5 mM
  Average changes of the blood glucose area under the curve after administration: -9.0 mmol/L/h
db/db mice; 0.015 mg/kg s.c., 6 h
  Average changes of random blood glucose after administration: -15.7 mM
db/db mice; 0.015 mg/kg s.c., 19 h
  Average changes of random blood glucose after administration: -13.5 mM
db/db mice; 0.015 mg/kg s.c., 27 h
  Average changes of fasting blood glucose after administration: -2.7 mM
  Average changes of the blood glucose area under the curve after administration: -5.2 mmol/L/h
db/db mice; 0.015 mg/kg s.c., 43 h
  Average changes of random blood glucose after administration: -10.1 mM
db/db mice; 0.015 mg/kg s.c., 51 h
  Average changes of fasting blood glucose after administration: -2.4 mM
  Average changes of the blood glucose area under the curve after administration: 1.1 mmol/L/h
db/db mice; 0.015 mg/kg s.c., 67 h
  Average changes of random blood glucose after administration: -3.1 mM
db/db mice; 0.015 mg/kg s.c., 75 h
  Average changes of fasting blood glucose after administration: 2.5 mM
  Average changes of the blood glucose area under the curve after administration: 8.2 mmol/L/h
db/db mice; 0.015 mg/kg s.c., 91 h
  Average changes of random blood glucose after administration: -0.1 mM
db/db mice; 0.015 mg/kg s.c., 99 h
  Average changes of fasting blood glucose after administration: 3.9 mM
  Average changes of the blood glucose area under the curve after administration: 7.9 mmol/L/h
db/db mice; 0.015 mg/kg s.c., 115 h
  Average changes of random blood glucose after administration: 4.9 mM
db/db mice; 0.015 mg/kg s.c., 123 h
  Average changes of fasting blood glucose after administration: 3.7 mM
  Average changes of the blood glucose area under the curve after administration: 13.0 mmol/L/h
db/db mice; 0.015 mg/kg s.c., 139 h
  Average changes of random blood glucose after administration: 5.9 mM
db/db mice; 0.015 mg/kg s.c., 147 h
  Average changes of fasting blood glucose after administration: 9.8 mM
  Average changes of the blood glucose area under the curve after administration: 21.9 mmol/L/h
db/db mice; 0.15 mg/kg dosage group
  time after administration at which G-AUC returns to the base before administration: 51 h
  time after administration at which fasting blood glucose returns to the basal blood glucose base: 75 h
  time after administration at which random blood glucose returns to the base before administration: 67 h
db/db mice; 0.15 mg/kg s.c., 3 h
  Average changes of fasting blood glucose after administration: -4.1 mM
  Average changes of the blood glucose area under the curve after administration: -10.3 mmol/L/h
db/db mice; 0.15 mg/kg s.c., 6 h
  Average changes of random blood glucose after administration: -15.7 mM
db/db mice; 0.15 mg/kg s.c., 19 h
  Average changes of random blood glucose after administration: -14.8 mM
db/db mice; 0.15 mg/kg s.c., 27 h
  Average changes of fasting blood glucose after administration: -3.0 mM
  Average changes of the blood glucose area under the curve after administration: -10.2 mmol/L/h
db/db mice; 0.15 mg/kg s.c., 43 h
  Average changes of random blood glucose after administration: -14.1 mM
db/db mice; 0.15 mg/kg s.c., 51 h
  Average changes of fasting blood glucose after administration: -3.2 mM
  Average changes of the blood glucose area under the curve after administration: -7.1 mmol/L/h
db/db mice; 0.15 mg/kg s.c., 67 h
  Average changes of random blood glucose after administration: -7.1 mM
db/db mice; 0.15 mg/kg s.c., 75 h
  Average changes of fasting blood glucose after administration: -0.7 mM
  Average changes of the blood glucose area under the curve after administration: 1.5 mmol/L/h
db/db mice; 0.15 mg/kg s.c., 91 h
  Average changes of random blood glucose after administration: 1.7 mM
db/db mice; 0.15 mg/kg s.c., 99 h
  Average changes of fasting blood glucose after administration: 1.4 mM
  Average changes of the blood glucose area under the curve after administration: 3.9 mmol/L/h
db/db mice; 0.15 mg/kg s.c., 115 h
  Average changes of random blood glucose after administration: 4.5 mM
db/db mice; 0.15 mg/kg s.c., 123 h
  Average changes of fasting blood glucose after administration: 4.4 mM
  Average changes of the blood glucose area under the curve after administration: 9.9 mmol/L/h
db/db mice; 0.15 mg/kg s.c., 139 h
  Average changes of random blood glucose after administration: 7.8 mM
db/db mice; 0.15 mg/kg s.c., 147 h
  Average changes of fasting blood glucose after administration: 6.7 mM
  Average changes of the blood glucose area under the curve after administration: 16.0 mmol/L/h
ICR mice; 0 h (before administration)
  G-AUC: 18.0 ± 1.9
ICR mice; 0.15 mg/kg s.c. single
  time the glucose-lowing effect is maintained: 3 days
ICR mice; 0.15 mg/kg s.c. single, 4 h
  G-AUC: 11.1 ± 1.2
  Inhibition rate (blood glucose): 38.47%
ICR mice; 0.15 mg/kg s.c. single, 1 d
  G-AUC: 11.9 ± 0.7
  Inhibition rate (blood glucose): 33.79%
ICR mice; 0.15 mg/kg s.c. single, 2 d
  G-AUC: 13.5 ± 1.1
  Inhibition rate (blood glucose): 25.18%
ICR mice; 0.15 mg/kg s.c. single, 3 d
  G-AUC: 15.6 ± 1.3
  Inhibition rate (blood glucose): 13.43%
ICR mice; 0.15 mg/kg s.c. single, 4 d
  G-AUC: 18.2 ± 1.1
  Inhibition rate (blood glucose): 0.60%
CD-1 mice; 0.15 mg/kg s.c., from Table 4
  duration of glucose-lowing effect in normal mice: about 3 days
CD-1 mice; Table 4, CD-1 mice, 0.15 mg/kg s.c., 6 h
  Inhibition rate (blood glucose): 38.47%
CD-1 mice; Table 4, CD-1 mice, 0.15 mg/kg s.c., 30 h
  Inhibition rate (blood glucose): 33.79%
CD-1 mice; Table 4, CD-1 mice, 0.15 mg/kg s.c., 54 h
  Inhibition rate (blood glucose): 25.18%
CD-1 mice; Table 4, CD-1 mice, 0.15 mg/kg s.c., 78 h
  Inhibition rate (blood glucose): 13.43%
CD-1 mice; Table 4, CD-1 mice, 0.15 mg/kg s.c., 102 h
  Inhibition rate (blood glucose): −1.05%
CD-1 mice; Table 5 (second experiment), CD-1 mice, 0.15 mg/kg s.c., 6 h
  Inhibition rate (blood glucose): 26.71%
CD-1 mice; Table 5 (second experiment), CD-1 mice, 0.15 mg/kg s.c., 30 h
  Inhibition rate (blood glucose): 33.57%
CD-1 mice; Table 5 (second experiment), CD-1 mice, 0.15 mg/kg s.c., 54 h
  Inhibition rate (blood glucose): 17.32%
CD-1 mice; Table 5 (second experiment), CD-1 mice, 0.15 mg/kg s.c., 78 h
  Inhibition rate (blood glucose): 8.97%
CD-1 mice; Table 5 (second experiment), CD-1 mice, 0.15 mg/kg s.c., 102 h
  Inhibition rate (blood glucose): −12.89%
